Source: US8765713B2, “Method for determination of sensitivity to anti-cancer agent” (Keio University, priority 2009, dated 2014)

What was measured:
HCT116 cells [1] = test: Intracellular protein level after drug exposure by SELDI-TOF MS, HCT116; type: cell-based, human; conditions: 4 to 48 hours
Method: (§1) Based on the results of (c) above, the drug concentration employed in the exposure test was determined. The 5-FU+L-OHP combination concentration was adjusted to the following four levels: 2 μ[…], and 100 μM+10 μM, the 5-FU concentration (exposure to single agent) was adjusted to 2 μM and 100 μM, and the L-OHP concentration (exposure to single agent) was adjusted to 1 μM and 10 μM. In addition, the exposure test was conducted at a drug-free concentration (control). That is, nine concentrations in total were employed. Drug exposure time was adjusted to the following five periods of time: 0 hour (just before exposure), 4 hours, 12 hours, 24 hours, and 48 hours. After completion of exposure, cell count was performed, and intracellular proteins were extracted. The medium was removed from the dish and washed thrice with ice-cooled PBS. The cells on the dish was collected by scraping with a rubber policeman. The thus-obtained cell suspension was transferred to a 1.5-mL microtube. The cell suspension was centrifuged at 4° C. and 1,200×g for 10 minutes, and the cells were recovered. After removal of the supernatant, a cell lysis buffer (9 mol/L urea, 2% CHAPS, 1 mM DTT, protease-inhibitor cocktail (Sigma)) was added in a volume of 200 μL with respect to 10,000,000 cells. The liquid was subjected to untrasonic treatment under cooling with ice. The thus-treated product was centrifuged at 4° C. and 16,000×g for 20 minutes, and the supernatant was quickly frozen with liquid nitrogen. The frozen product was stored at -80° C. before analysis. An aliquot of the supernatant was subjected to protein quantification (DC Protein Assay Kit, Bio-Rad). The protein sample was mixed with a cell lysis buffer (excluding protease inhibitor), to thereby adjust the protein concentration to 2.5 mg/mL. The liquid was further mixed with a dilution/washing buffer (pH: 4.5, 50 mM sodium acetate buffer) (hereinafter referred to simply as “buffer”), to a protein concentration of 0.5 mg/mL. The thus-prepared sample (100 μL) was applied to spots of a cation-exchange ProteinChip array (CM10, Bio-Rad) which had been conditioned in advance with the same buffer. Incubation was performed for one hour for reaction, and the chip array was washed thrice with the buffer and rinsed twice with milliQ water, followed by drying in air. Energy absorbing molecule (EAM: saturated solution of sinapinic acid in 50% ACN/0.5% TFA) (1.0 μL ([…])) was added to each spot. After the surface of the spot was dried, analysis of the ProteinChip array was performed. […] As an analyzer, ProteinChipTM Reader (Model PCS4000 Personal Edition, Bio-Rad) was used and the analysis was performed under the following conditions: mass range of 0 to 70,000 Da, focus mass of 8,000 Da, energy of 3,000 or 4,000 nJ, and 265 shots/sample. […]

DLD-1 cells [2] = test: Intracellular protein level after drug exposure by SELDI-TOF MS, DLD-1; type: cell-based, human; conditions: DLD-1, SELDI-TOF MS, 4 to 48 hours
Method: as §1

DLD-1 cells [3] = test: MTS assay cell viability after drug exposure, DLD-1
Method: (§2) Two human colorectal cancer cell lines (HCT116 and DLD-1) were obtained from ECACC. Cell culturing was performed by means of a φ000 mm/Tissue Culture Dish (IWAKI) with a medium (D-MEM, 2 mM glutamine, 10% fetal bovine serum) at 37° C. under 5% CO2.
(§3) Two colorectal cancer cell lines (HCT116 and DLD-1) were exposed to a drug, and 24 hours and 48 hours after drug exposure, cell viability was determined by means of an MTS assay (CellTiter96™AQueous One Solution Cell Proliferation Assay, Promega). Drug exposure conditions were as follows. 5-FU (single agent) was used at the following 11 concentrations: control (0 μM), 0.001 μM, 0.01 μM, 0.1 μM, 1 μM, 3 μM, 10 μM, 30 μM, 100 μM, 1,000 μM, and 10,000 μM. L-OHP (single agent) was used at the following 11 concentrations; control (0 μM), 0.001 μM, 0.01 μM, 0.1 μM, 0.3 μM, 1 μM, 3 μM, 10 μM, 30 μM, 100 μM, and 1,000 μM. […]
(§4) Sensitivity analysis was performed from viability data calculated from MTS assay results. The presence or absence of combined effect was determined through comparison of viability obtained by exposure to a combination with that obtained by exposure to a single agent at the same concentration as employed at the exposure to the combination.

HCT116 cells [4] = test: MTS assay cell viability after drug exposure, HCT116
Method: as §2, §3, §4

SMILES	levels of proteins A to C and G to K after exposure (HCT116 cells [1])	levels of proteins D and M after exposure (HCT116 cells [1])	levels of proteins A to C and G to K after exposure (DLD-1 cells [2])	levels of proteins D and M after exposure (DLD-1 cells [2])	cell viability (DLD-1 cells [3]; DLD-1, 1 μM L-OHP, 48 hours)	cell viability (HCT116 cells [4]; HCT116, 1 μM L-OHP, 48 hours)	levels of proteins A to C, F, and H to K after exposure (HCT116 cells [1])	levels of proteins A to C, F, and H to K after exposure (DLD-1 cells [2])	viability at 100 µM (DLD-1 cells [3]; Homo sapiens, DLD-1, 48 h, read-out: cell viability) [%]	viability at 100 µM (HCT116 cells [4]; Homo sapiens, HCT-116, 48 h, read-out: cell viability) [%]
O=C1[O][Pt]2([NH][C@@H]3CCCC[C@H]3[NH]2)[O]C1=O [L-OHP, (SP-4-2)-[(1R,2R)-cyclohexane-1,2-diamine-κN,κN′][ethanedioato(2-)-κO^1,κO^2]platinum]	no significant difference	decrease	increase	no significant difference	about 82%	about 37%				
O=c1[nH]cc(F)c(=O)[nH]1 [5-FU, Fluorouracil]		decrease		no significant difference			no significant difference	increase	~49	~24
